Source: patent US20240287042A1, “NOVEL COMPOUND HAVING INHIBITORY ACTIVITY AGAINST PENDRIN, AND PHARMACEUTICAL USES THEREOF” (UIF (University Industry Foundation), Yonsei University, priority 2021, published 2024)

Experiments:
[1] = biological target: T1, human WT CFTR (Homo sapiens, UniProt P13569); experiment: CFTR I− transport activity, YFP fluorescence, forskolin-activated; format: cell-based; settings: for Effect on CFTR activity: 100 μM
T1 construct: expressed in transfected cells
Method: (§1) Chinese hamster ovary (CHO)-K1 cells or LN-215 cells were cultured in DMEM medium containing 10% fetal bovine serum (FBS), 100 units/ml of penicillin and 100 μg/ml streptomycin. CHO-K1 cells or LN-215 cells were stably transfected with pcDNA3.1 encoding the halide sensor YFP-H148Q/I152L/F46L and human wild-type (WT)-SLC26A9. Fisher rat thyroid (FRT) cells stably transfected with YFP-H148Q/I152L/F46L and human wild type (WT)-CFTR or human wild type (WT)-ANO1 were cultured in DMEM/F-12 medium containing 10% fetal bovine serum (FBS), 100 units/ml of penicillin, and 100 μg/ml of streptomycin.
LN-215 cells expressing human WT SLC26A9 and YFP-F46L/H148Q/I152L, and FRT cells expressing human WT CFTR or ANO1 and YFP-F46L/H148Q/I152L were plated in 96-well microplates at a density of 2×10^4 cells per well, and cultured for 48 hours. […] After culturing at 37° C. for 10 minutes, the 96-well plate was located on the FLUOstar Omega Microplate Reader (BMG Labtech, Ortenberg, Germany) for a fluorescence assay. For assay of the activity of […], fluorescence was recorded continuously (400 ms per point) for 1 second (baseline), whereby each well was assayed individually for SLC26A9-mediated I-influx. Then, 50 μL of NaI-substituted HEPES buffered solution (replacing NaCl with NaI) was added using a liquid injector at 1 second, and YFP fluorescence was recorded for 6 seconds. For assay of the activity of CFTR, fluorescence was recorded continuously (400 ms per point) for 2 seconds (baseline), whereby each well was assayed individually for CFTR-mediated I^− influx. Then, 50 μL of NaI-substituted HEPES buffered solution (replacing NaCl with NaI) was added using a liquid injector at 2 second, and YFP fluorescence was recorded for 8 seconds. For assay of the activity of ANO1, fluorescence was recorded continuously (400 ms per point) for 1 second (baseline), whereby each well was assayed individually for ANO1-mediated I^− influx. […] The initial iodide influx rate was determined from the initial slope of fluorescence by nonlinear regression, after the injection of iodide. […]

[2] = biological target: T2, human WT ANO1 (Homo sapiens, UniProt Q5XXA6); experiment: ANO1 I− transport activity, YFP fluorescence in FRT cells, ATP-activated; format: cell-based
T2 construct: expressed in transfected cells
T2 sequence (Q5XXA6 1-986): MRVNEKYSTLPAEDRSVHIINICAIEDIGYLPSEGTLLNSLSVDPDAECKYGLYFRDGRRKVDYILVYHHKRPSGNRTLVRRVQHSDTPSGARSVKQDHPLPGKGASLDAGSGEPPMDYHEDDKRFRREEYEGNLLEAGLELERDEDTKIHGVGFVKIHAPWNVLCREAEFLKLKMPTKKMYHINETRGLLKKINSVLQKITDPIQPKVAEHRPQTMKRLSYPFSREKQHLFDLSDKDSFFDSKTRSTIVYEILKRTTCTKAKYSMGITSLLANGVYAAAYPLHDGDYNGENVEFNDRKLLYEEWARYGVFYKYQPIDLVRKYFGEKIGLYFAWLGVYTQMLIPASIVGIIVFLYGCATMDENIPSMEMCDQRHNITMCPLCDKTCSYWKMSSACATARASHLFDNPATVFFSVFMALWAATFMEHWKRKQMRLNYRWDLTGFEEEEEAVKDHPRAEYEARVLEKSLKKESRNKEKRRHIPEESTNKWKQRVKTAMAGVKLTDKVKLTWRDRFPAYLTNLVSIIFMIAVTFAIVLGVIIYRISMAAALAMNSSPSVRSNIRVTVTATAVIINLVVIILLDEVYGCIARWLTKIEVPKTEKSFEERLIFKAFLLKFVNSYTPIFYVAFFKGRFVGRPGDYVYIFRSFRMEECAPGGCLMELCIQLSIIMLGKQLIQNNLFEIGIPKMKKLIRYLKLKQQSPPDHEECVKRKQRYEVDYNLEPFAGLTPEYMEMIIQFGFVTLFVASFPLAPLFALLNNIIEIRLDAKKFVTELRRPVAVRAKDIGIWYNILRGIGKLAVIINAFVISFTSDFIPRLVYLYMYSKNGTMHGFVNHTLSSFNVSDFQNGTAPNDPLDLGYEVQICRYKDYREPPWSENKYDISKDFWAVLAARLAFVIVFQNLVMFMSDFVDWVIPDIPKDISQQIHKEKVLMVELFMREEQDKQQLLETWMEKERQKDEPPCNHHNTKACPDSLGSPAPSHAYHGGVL
Method: as §1
LN-215 cells expressing human WT SLC26A9 and YFP-F46L/H148Q/I152L, and FRT cells expressing human WT CFTR or ANO1 and YFP-F46L/H148Q/I152L were plated in 96-well microplates at a density of 2×10^4 cells per well, and cultured for 48 hours. […] After culturing at 37° C. for 10 minutes, the 96-well plate was located on the FLUOstar Omega Microplate Reader (BMG Labtech, Ortenberg, Germany) for a fluorescence assay. For assay of the activity of […], fluorescence was recorded continuously (400 ms per point) for 1 second (baseline), whereby each well was assayed individually for SLC26A9-mediated I-influx. Then, 50 μL of NaI-substituted HEPES buffered solution (replacing NaCl with NaI) was added using a liquid injector at 1 second, and YFP fluorescence was recorded for 6 seconds. […]

T1 sequence (P13569 whole entry): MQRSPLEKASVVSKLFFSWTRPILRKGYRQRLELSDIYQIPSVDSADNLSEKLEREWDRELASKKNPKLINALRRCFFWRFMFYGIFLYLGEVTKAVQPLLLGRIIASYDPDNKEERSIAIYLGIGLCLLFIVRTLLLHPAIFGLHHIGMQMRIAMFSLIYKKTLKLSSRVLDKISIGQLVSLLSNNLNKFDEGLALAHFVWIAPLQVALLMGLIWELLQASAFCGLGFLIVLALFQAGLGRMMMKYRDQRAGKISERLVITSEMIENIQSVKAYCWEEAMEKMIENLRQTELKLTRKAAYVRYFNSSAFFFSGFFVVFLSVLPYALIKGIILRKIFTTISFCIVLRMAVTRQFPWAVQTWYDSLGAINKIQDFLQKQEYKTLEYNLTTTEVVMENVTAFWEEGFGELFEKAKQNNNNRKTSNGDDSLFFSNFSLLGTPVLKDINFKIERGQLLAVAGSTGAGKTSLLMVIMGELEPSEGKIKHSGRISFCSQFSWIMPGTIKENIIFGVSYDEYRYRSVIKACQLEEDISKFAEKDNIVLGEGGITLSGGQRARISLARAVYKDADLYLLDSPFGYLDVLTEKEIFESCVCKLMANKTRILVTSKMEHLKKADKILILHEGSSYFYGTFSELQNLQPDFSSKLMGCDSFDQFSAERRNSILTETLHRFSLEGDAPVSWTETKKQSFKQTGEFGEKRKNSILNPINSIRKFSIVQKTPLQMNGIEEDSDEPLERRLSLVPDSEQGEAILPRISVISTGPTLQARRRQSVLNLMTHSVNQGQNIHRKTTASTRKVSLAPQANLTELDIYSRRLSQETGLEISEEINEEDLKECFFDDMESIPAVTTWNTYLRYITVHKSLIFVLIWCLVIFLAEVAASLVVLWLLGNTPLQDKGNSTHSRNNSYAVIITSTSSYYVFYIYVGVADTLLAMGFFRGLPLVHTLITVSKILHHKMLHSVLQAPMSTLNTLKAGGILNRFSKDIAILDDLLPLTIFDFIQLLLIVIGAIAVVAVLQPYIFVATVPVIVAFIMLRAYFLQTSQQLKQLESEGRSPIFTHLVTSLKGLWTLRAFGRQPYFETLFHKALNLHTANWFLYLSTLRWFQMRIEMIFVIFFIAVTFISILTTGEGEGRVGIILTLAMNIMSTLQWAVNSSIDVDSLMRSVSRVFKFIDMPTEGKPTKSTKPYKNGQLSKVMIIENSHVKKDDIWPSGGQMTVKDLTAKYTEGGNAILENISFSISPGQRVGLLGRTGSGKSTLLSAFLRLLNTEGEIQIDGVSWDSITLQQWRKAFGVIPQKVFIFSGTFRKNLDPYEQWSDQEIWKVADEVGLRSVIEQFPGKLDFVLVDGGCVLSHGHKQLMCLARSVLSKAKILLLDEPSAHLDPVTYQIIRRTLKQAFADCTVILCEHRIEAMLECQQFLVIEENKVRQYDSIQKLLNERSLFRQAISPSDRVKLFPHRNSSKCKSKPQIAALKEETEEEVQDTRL

Effect on CFTR activity ([1]; Example 14, CHO-K1 cells, FIG. 16) | Effect on CFTR activity ([1]; FRT-YFP cells, FIG. 3) | Effect on ANO1 activity ([2]; 30 μM) | inhibition at 100 µM ([1]; FRT-YFP cells, FIG. 3) | inhibition at 30 µM ([2]; FIG. 3) | SMILES
almost no effect | almost no effect | weakly inhibited |  |  | Cc1ccc2[nH]c(C(=O)O)c(CC(=O)N3CCN(c4c(C)cccc4Cl)CC3)c2c1 [YPI-A4948, 3-(2-(4-(2-Chloro-6-methylphenyl)piperazin-1-yl)-2-oxoethyl)-5-methyl-1H-indole-2-carboxylic acid]
 |  |  | ~50% | ~80% | Cc1ccc(C)c(N2CCN(C(=O)Cc3c(C(=O)O)[nH]c4ccc(Cl)cc34)CC2)c1 [YPI-H05, 5-chloro-3-(2-(4-(2,5-dimethylphenyl)piperazin-1-yl-)-2-oxoethyl)-1H-indole-2-carboxylic acid]
